Consider 2 compounds from patent publication US20070248944A1, “Preventive and Remedy for Collagen or Elastin Metabolic Disorder” (YAMAGUCHI UNIVERSITY, priority 2004, published 2007).

Assay [1] has as its system abdominal aortic aneurysm model (angiotensin II-infused apoE knockout mice). Nature of the assay: JNK inhibition experiment using an apoE knockout mouse aneurysm model (angiotensin II infusion, prevention). The assay is classed as in vivo. The settings on record: by week 5 after initiation of angiotensin II infusion; control group 6.25%. Here is the method:
An abdominal aortic aneurysm model was generated through continuous administration of angiotensin II to apolipoprotein E (apo E) knockout mice according to Daugherty et al's method (J. Clin. Invest. 105: 1605-1612 (2000)). Specifically, mini-osmotic pump (Alzet) was implanted into 24-week-old apoE knockout male mice and angiotensin II (1 μg/min/kg) was continuously infused. These model mice were affected with hyperlipidemia, hypertension, and marked aortic arteriosclerosis. As a result of 4 weeks of angiotensin II infusion, aneurysm formation was observed mainly in the suprarenal abdominal aorta of these mice. Some of these mice died due to aneurysmal rupture. […] Simultaneously with the initiation of continuous infusion of angiotensin II, daily subcutaneous injection of a JNK inhibitor SP600125 (SP group: 8 mice) or a solution (control group: 16 mice) without JNK inhibitor was initiated. The method employed herein for administration of SP600125 was similar to that in Example 1 above. On week 4, the maximum diameter of each abdominal aorta was measured using ultrasonic diagnostic equipment.

For assay [2] the test system is unchanged. Kind of assay: Aneurysm therapy and regression in apoE knockout mouse aneurysm model. It is filed as in vivo. The settings on record: 8 weeks of injection; control group 0% ±13%; p<0.05. As to the method:
After completion of 4 weeks of angiotensin II infusion, the lumen diameter of each abdominal aortic aneurysm was measured using ultrasonic diagnostic equipment. The mice were evenly divided into 2 groups based on the measured values. Immediately after grouping, daily subcutaneous injection of the […] inhibitor SP600125 (SP group) or a solution alone (control group) was initiated. The method employed herein for administration of SP600125 and the solution was similar to that in Example 1 above. On week 8 after the initiation of injection, the aneurysm diameter of each abdominal aortic aneurysm was measured again using ultrasonic diagnostic equipment.

Assay [3] deals with MMP-9. Nature of the assay: MMP-9 secretion in TNF-α-stimulated THP-1 cells, gelatin zymography. The settings on record: 0, 1, 2, and 5 μM peptide, TNF-α 50 ng/ml, 48 hours. It is filed as cell-based, human. As to the method: To verify the effects of a JNK inhibitor peptide, an experiment was conducted using MMP-9 as an index, which is thought to be important in the pathogenesis of aneurysms, in a cultured cell system. Cells used herein were macrophage cells (THP-1) mainly expressing MMP-9 in human aneurysms. Specifically, a JNK inhibitor peptide D-JNKI1 (ALEXIS) was administered at various concentrations (0, 1, 2, and 5 μM D-JNKI1) in advance to cultured THP-1 cells. D-TAT (ALEXIS) was used as a control peptide. At 24 hours after peptide administration. the cells were stimulated with TNF-α (50 ng/ml), an inflammatory cytokine. 48 hours later, culture solutions were collected and then the amounts of MMP-9 secreted in the culture solutions were subjected to quantitative analysis by the gelatin zymography method.

For assay [4], the system named is human abdominal aortic aneurysmal wall tissue. Kind of assay: 3H-labeled proline incorporation in human aneurysmal wall culture system. It is filed as cell-based. The settings on record: 5 mM peptide; TNF-α 100 ng/ml; 48 hours; p<0.05. Here is the method:
Aneurysmal wall tissue excised at the time of operation of human abdominal aortic aneurysms was chopped and then cultured. The ability of aneurysmal wall to newly synthesize collagen was analyzed using 3H-labeled proline that is abundantly contained in collagen according to the Kidwell et al's method (Methods in Enzymology 147: 407-414 (1987)). Specifically, 3H-labeled proline (3 μCi/ml) was added to media to initiate culture. Immediately after culture initiation, a JNK inhibitor peptide (D-JNKI1, 5 mM, ALEXIS) was administered. D-TAT (5 mM, ALEXIS) was used as a control peptide. At 12 hours after peptide administration, stimulation was performed with TNF-α (R&D Systems, 100 ng/ml) TNF-α is an inflammatory cytokine that is increased in human aortic aneurysms and is known to activate JNK. 48 hours later, proteins in the culture supernatants were collected. 3H-labeled proline that had been incorporated for novel synthesis was measured using a scintillation counter.

For assay [5], the system named is vascular smooth muscle cells isolated from a rat aorta. Nature of the assay: Collagen synthesis (3H-labeled proline, collagenase-sensitive fraction) in vascular smooth muscle cell primary culture. The assay is classed as cell-based. Further details: dose or concentration left out as unconfirmed. The settings on record: 72 hours; serum-free media; p<0.01. Here is the method: An experiment was conducted using a vascular smooth muscle cell primary culture system isolated from a rat aorta. Among newly-synthesized proteins into which 3H-labeled proline had been incorporated, fractions that are specifically degraded by collagen degrading enzymes were subjected to quantitative analysis according to Kidwell et al's method (Methods in Enzymology, 147: 407-414 (1987)). 3H-labeled proline (3 μCi/ml) was added to serum-free media to initiate culture. Immediately after culture initiation, a JNK inhibitor peptide (D-JNK1, 0, 1, 2, and 5 mM, ALEXIS) was administered. At 72 hours after peptide administration, proteins in the culture supernatants were collected. Furthermore, only fractions that had been solubilized by collagen degrading enzymes were collected. 3H-labeled proline that had been incorporated for novel collagen synthesis was measured using a scintillation counter.

Assay [6] has as its system lysyl oxidase. Kind of assay: Lysyl oxidase mRNA expression in serum-deficient vascular smooth muscle cells, real time PCR. The assay is classed as cell-based, rat. Further details: dose or concentration left out as unconfirmed. The settings on record: serum-deficiency stress; day 6; p<0.01. Here is the method:
An experiment was conducted using a vascular smooth muscle cell primary culture system isolated from a rat aorta. Serum deficiency state was created at the initiation of the experiment. JNK of cultured cells was activated by serum-deficiency stress. Immediately after the initiation of the experiment, a JNK inhibitor peptide (D-JNKI1, 5 mM, ALEXIS) was administered. D-TAT (5 mM, ALEXIS) was used as a control peptide. On day 6 after peptide administration, the cells were harvested. Lysyl oxidase expression was subjected to quantitative analysis at the mRNA level using the real time PCR method. Lysyl oxidase (LOX) is an enzyme essential for the maturation of collagen fiber or elastin fiber. Decreased level of LOX indicates lowered ability to synthesize collagen or elastin.

With `Oc1c2ccccc2c2c3c(cccc13)N=N2` [SP600125, Anthra[1-9-cd]pyrazol-6(2H)-one], the Cumulative survival rate in assay [1] is 87.5%. The “Reduction percentage of aneurysm diameter (before vs after injection)” value in assay [2] was 17% ±10%.
In the case of “c-Jun N-terminal Kinase Peptide Inhibitor 1, D-stereoisomer [D-JNKI1]”, in assay [3], the “MMP-9 secretion due to TNF-α” value is “suppressed MMP-9 secretion due to TNF-α in a concentration-dependent manner”. Moreover, the “3H-labeled proline incorporation decreased by TNF-α” value in assay [4] is on record as “significantly restored”. The “Ability to synthesize collagen” value in assay [5] came out at 1.6±0.1 times. For the same compound, the “Lysyl oxidase expression level (mRNA)” value in assay [6] is “inhibited a decrease in lysyl oxidase expression level”.
